Experimental data from patent publication US10450328B2, “Crystals of thiadiazole derivative DPP-IV inhibitors and uses thereof” (CHIA TAI TIANQING PHARMACEUTICAL GROUP CO., LTD., priority 2015, dated 2019).

Legend:
[1] = result in words; cited from earlier work
[2] = biological target: DPP-IV (Homo sapiens, UniProt P27487); settings: result in words; cited from earlier work
[3] = Stability test: experiments on influencing factors (light irradiation, high temperature, high humidity); format: physicochemical; settings: for stability: result in words
Description: Suitable amounts of the crystalline Form A obtained in Example 2 and the crystalline Form B obtained in Example 3 were taken to carry out experiments on influencing factors according to the methods described in the Chinese Pharmacopoeia, 2010 edition, Part II, Appendix.

[4] = Powder fluidity; format: physicochemical; settings: result in words
[5] = High-humidity Test 92.5% RH, 5 days
[6] = High-humidity Test 92.5% RH, 10 days
[7] = High-temperature Test 40° C., 5 days
[8] = High-temperature Test 40° C., 10 days
[9] = High-temperature Test 60° C., 5 days
[10] = Light Irradiation Test 4500Lux, 5 days
[11] = Light Irradiation Test 4500Lux, 10 days
[12] = High-temperature Test 60° C., 5 days, 60 °C
[13] = High-temperature Test 60° C., 10 days, 60 °C

Sequence of DPP-IV (P27487 whole entry, species assumed): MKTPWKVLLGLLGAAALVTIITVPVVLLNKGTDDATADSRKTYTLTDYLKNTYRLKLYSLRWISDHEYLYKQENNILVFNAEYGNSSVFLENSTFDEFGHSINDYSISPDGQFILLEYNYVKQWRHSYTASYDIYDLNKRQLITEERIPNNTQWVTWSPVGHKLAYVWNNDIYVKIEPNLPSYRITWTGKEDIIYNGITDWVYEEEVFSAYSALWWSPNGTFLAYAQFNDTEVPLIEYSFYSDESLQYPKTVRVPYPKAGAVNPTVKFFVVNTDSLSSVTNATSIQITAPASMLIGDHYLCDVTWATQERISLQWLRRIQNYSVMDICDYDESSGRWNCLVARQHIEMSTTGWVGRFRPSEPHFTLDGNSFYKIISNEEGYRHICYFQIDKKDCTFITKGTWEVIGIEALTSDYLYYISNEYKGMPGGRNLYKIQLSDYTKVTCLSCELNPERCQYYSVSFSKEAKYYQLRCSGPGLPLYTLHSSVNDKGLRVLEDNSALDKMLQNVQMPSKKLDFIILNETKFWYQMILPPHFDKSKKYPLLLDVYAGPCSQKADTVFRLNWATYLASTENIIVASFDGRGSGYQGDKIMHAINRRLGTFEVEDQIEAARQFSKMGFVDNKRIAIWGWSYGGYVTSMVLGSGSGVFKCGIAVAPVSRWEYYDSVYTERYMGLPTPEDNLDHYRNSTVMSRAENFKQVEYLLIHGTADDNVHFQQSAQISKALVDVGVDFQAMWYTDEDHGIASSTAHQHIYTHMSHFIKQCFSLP

Relative Substances Main Peak % ([3]; 0 day) [%] | Relative Substances Maximum Single Impurity % ([3]; 0 day) [%] | Relative Substances Main Peak % [3, 5] [%] | Relative Substances Maximum Single Impurity % [3, 5] [%] | Relative Substances Main Peak % [3, 6] [%] | Relative Substances Maximum Single Impurity % [3, 6] [%] | Relative Substances Main Peak % [3, 7] [%] | Relative Substances Maximum Single Impurity % [3, 7] [%] | Relative Substances Main Peak % [3, 8] [%] | Relative Substances Maximum Single Impurity % [3, 8] [%] | Relative Substances Main Peak % [3, 10] [%] | Relative Substances Maximum Single Impurity % [3, 10] [%] | Relative Substances Main Peak % [3, 11] [%] | Relative Substances Maximum Single Impurity % [3, 11] [%] | stability [3] | powder fluidity [4] | SMILES | also measured
– | – | – | – | – | – | – | – | – | – | – | – | – | – | – | – | CC#CCn1c(N2CCC[C@@H](N)C2)nc2c1c(=O)n(Cc1ccc3nsnc3n1)c(=O)n2C [Compound 7] | half-life in vivo [1]: suitable half-life in vivo; metabolic level in vivo [1]: very good metabolic level in vivo; inhibitory activity against DPP-IV [2]: very good inhibitory activity
98.78 | 0.56 | 98.79 | 0.61 | 98.84 | 0.61 | 98.72 | 0.60 | 98.42 | 0.61 | 98.09 | 0.51 | 96.21 | 0.70 | excellent stability | good powder fluidity | CC#CCn1c(N2CCC[C@@H](N)C2)nc2c1c(=O)n(Cc1ccc3nsnc3n1)c(=O)n2C [crystalline Form A] | Relative Substances Main Peak % [3, 9]: 98.72%; Relative Substances Maximum Single Impurity % [3, 9]: 0.60%; Relative Substances Maximum Single Impurity % ([3]; High-temperature Test 60° C., 10 days): 0.61%; Relative Substances Main Peak % ([3]; High-temperature Test 60° C., 10 days, 60 °C high-temperature test): 98.74%
99.3 | 0.18 | 99.36 | 0.17 | 99.4 | 0.16 | 99.38 | 0.17 | 99.44 | 0.15 | 98.98 | 0.26 | 98.2 | 0.58 | excellent stability | good powder fluidity | CC#CCn1c(N2CCC[C@@H](N)C2)nc2c1c(=O)n(Cc1ccc3nsnc3n1)c(=O)n2C [crystalline Form B] | Relative Substances Main Peak % [3, 12]: 99.33%; Relative Substances Maximum Single Impurity % [3, 12]: 0.2%; Relative Substances Main Peak % [3, 13]: 99.12%; Relative Substances Maximum Single Impurity % [3, 13]: 0.24%
